Measured values taken from paper PMC4912613, “A broad analysis of resistance development in the malaria parasite” (Nature Communications, 2016).

What was measured:
PfCRT-Q352R (parent Dd2) = test: Cross-resistance EC50 assay, PfCRT-Q352R; assay type: cell-based; settings: Plasmodium falciparum, DD2, 72 h, read-out: PfCRT:Q352R (Dd2 Parent) Average EC50
Source text: (§1) To evaluate potential overlapping activity against known antimalarial drug targets, we performed dose-response studies with each compound against our assembled set of drug-resistant lines and their corresponding parents, in an asexual blood stage proliferation assay (Table 1). Comparisons were made to the drug-sensitive strain 3D7 when a parent was unavailable (TM90C2A, W2 and Dd2). As laboratories conducted EC50 assays with different strains and protocols, all comparisons were made between assays from the same laboratory and under the same assay conditions. Compounds displaying >5-fold EC50 shifts relative to the parent or sensitive strain were flagged as having potentially non-novel targets. Average fold shifts per strain ranged from 0.82 to 2.34, with a median of 1.23 indicating there was not common resistance to any one resistant clone. No resistance patterns were observed when classifying the compounds based on chemical structure, but this was not surprising given the diversity of compounds chosen. On the other hand, given that these confirmed compounds were derived from larger unconfirmed hit lists to which some filtration criteria may have been applied (for example, elimination of obvious dihydrofolate reductase inhibitors[32]), some[10][11][12][13] pre-existing bias may exist in the set. […]
(§2) Alternatively, a SYBR Green-based proliferation approach was used for the 72-h assay, as previously described. Briefly, a culture of either synchronized or asynchronous parasitized RBCs (0.3% parasitemia and 4% haematocrit) in screening medium (identical to supplemented medium above except no serum was added) was exposed to serial drug dilutions. Plates were incubated at 37 °C and gassed with 93% N2, 4% CO2 and 3% O2 for 72 h. Following incubation, 10 × SYBR Green I (Invitrogen; supplied in 10,000 × concentration) in lysis buffer ([…], 5 mM EDTA, 0.16% Saponin wt per vol and 1.6% Triton X vol per vol) was added to the wells and the plates were incubated overnight at room temperature before plate reading. EC50 assays were repeated three times, taking the average EC50 value from each assay set, and removing any outliers using a single iteration of Grubbs' test, eliminating values with z-scores above the critical z-value (α=0.05). The raw EC50 values for synchronized parasites assayed in a 384-well format are listed in Supplementary Data 4. The raw EC50 values for asynchronous parasites assayed in a 96 or 1536-well format are listed in Supplementary Data 5.
(§3) EC50 values for each strain were compared with those of the corresponding parent strain to determine fold-shift changes and identify resistance. To minimize the cause variance between assays, all comparisons were conducted between strains assayed under identical conditions. A one-way ANOVA followed by a Dunnet's post-test was conducted in GraphPad Prism to identify significant changes between the parent and resistant strain.

[1] = test system: NITD609-R2 (PfATP4 T418N and P990R, parent Dd2); test: Cross-resistance EC50 assay, NITD609-R2; assay type: cell-based; settings: Plasmodium falciparum, SYBR green 72 hour assay, asynchronized parasites, 96-well or 1536-well format
Source text: as §1, §2, §3

hsp90 (D88Y, parent Dd2) = test: Cross-resistance EC50 assay, hsp90; assay type: cell-based; settings: Plasmodium falciparum, SYBR green 72 hour assay, synchronized parasites, 384-well format
Source text: as §1, §2, §3

P. falciparum = test: Rate of killing (parasite viability) assay; assay type: cell-based, Plasmodium falciparum; settings: profile compared with chloroquine, pyrimethamine, atovaquone; 48 h treatment
Procedure: To identify whether selection success could be predicted by compound speed of action, and to gain a greater insight into the potential mechanisms of action, assays were performed to test the killing rate (Supplementary Data 1)[33]. To quantify the killing rate, viability time-course profiles for each compound were compared with antimalarials known to have fast (chloroquine), moderate (pyrimethamine) or slow (atovaquone) rate of action. These rates were then compared with other compound characteristics, including cross-resistance profile, selection success, potency and structural characteristics to identify any possible trends. […] One compound's rate of killing, MMV666080, was unidentifiable due to compound availability. No correlation was seen between compound structure and speed of action. Additionally, there was no correlation found between killing rate and compound potency against 3D7, nor between potency and selection success (Supplementary Fig. 2).
Rate of killing was determined for each compound following a previously described methodology, which uses the invasion of fresh erythrocytes as surrogate of parasite viability. Briefly, parasites were treated with compounds for 48 h. Compound was washed out and fresh-labelled erythrocytes added to the treated parasites. Double stained erythrocytes (RBC label plus parasite DNA label) were quantified and per cent of survival determined.

[2] = test system: DHODH (E182D, parent 3D7); test: Cross-resistance EC50 assay, DHODH; assay type: cell-based; settings: Plasmodium falciparum, SYBR green 72 hour assay, synchronized parasites, 384-well format
Source text: as §1, §2, §3

| SMILES | EC50 (PfCRT-Q352R (parent Dd2)) [nM] | EC50 [1] [µM] | EC50 (hsp90 (D88Y, parent Dd2); DD2, HSP90 strain) [nM] | Killing Rate (P. falciparum) | EC50 ([2]; 3D7, DHODH strain) [nM] | EC50 (hsp90 (D88Y, parent Dd2); strain HSP90 (Dd2 parent)) [nM] | EC50 ([2]; strain DHODH (3D7 parent)) [nM] |
| --- | --- | --- | --- | --- | --- | --- | --- |
| CN(C)CCCNCc1ccc(-c2ccc(Cl)c(Cl)c2)o1 [MMV673964] | 552 | 0.756 | 322 | CQ (fast) | 337 | – | – |
| COc1ccc2c3c([nH]c2c1)[C@H](CO)N(C(C)=O)CC31CCN(C(=O)Nc2ccccc2F)CC1 [MMV673482] | 71 | 0.007 | 94 | PYR (moderate) | 151 | – | – |
| CCCCCCCN(Cc1ccc(OC(C)(C)C(=O)OCC)cc1)C(=O)Nc1ccc(Cl)cc1OCC [MMV021735] | 259 | 0.773 | – | ATQ (slow) | – | 275 | 460 |
| FC(F)(F)c1cccc(Nc2nc3ccccc3nc2Nc2cccc(C(F)(F)F)c2)c1 [MMV665794] | 116 | 0.321 | – | PYR (moderate) | – | 140 | 187 |
| Cc1c(C)n(Cc2ccc(F)cc2)c2ccc(C(=O)NCc3ccco3)cc12 [MMV008149] | 139 | 0.934 | – | ATQ (slow) | – | 191 | 401 |
| COc1ccc(C(=O)C2CC2c2ccc(Cl)cc2)cc1 (stereo not shown) [MMV665924] | 1400 | 1.69 | – | CQ (fast) | – | 1680 | 927 |
| OC(CNC1CCCCC1)Cn1c2ccccc2c2ccccc21 (stereo not shown) [MMV009063] | 315 | 0.411 | – | CQ (fast) | – | 286 | 715 |
| COc1cc2cc(C(=O)Nc3ccccc3)c(N)nc2cc1OC [MMV006767] | 1480 | 0.106 | – | PYR (moderate) | – | 3100 | 519 |
| CN(C)S(=O)(=O)c1cc(-c2ccc3nccc(-c4cccc(S(N)(=O)=O)c4)c3c2)cnc1N [MMV024038] | 107 | 0.958 | – | PYR/CQ (moderate) | – | 128 | 216 |
| COCCNCC(O)Cn1c2ccc(Cl)cc2c2cc(Cl)ccc21 (stereo not shown) [MMV019017] | 582 | 0.456 | – | CQ (fast) | – | 614 | 1040 |
| CCC(C)NCC(O)(c1ccc(Cl)cc1)c1ccc(Cl)cc1 (stereo not shown) [MMV665928] | 486 | 0.18 | – | CQ (fast) | – | 501 | 878 |
| COc1ccc(NC(=O)N2CCCCN3[C@H](CN)[C@H](c4ccc(C#Cc5ccccc5)cc4)[C@@H]3C2)cc1 [BRD1095] | 12 | 0.001 | 17 | PYR/CQ (moderate) | 23 | – | – |
| O=C(Nc1ccc(Cl)c(Cl)c1)Nc1ccc(Cl)c(Cl)c1 [MMV665852] | 905 | 1.75 | – | CQ (fast) | – | 893 | 1770 |
| Brc1ccc(Nc2nc3ccccc3nc2Nc2ccc(Br)cc2)cc1 [MMV007224] | 287 | 0.754 | – | ATQ (slow) | – | 247 | 606 |
| Nc1ncc(-c2cn[nH]c2)cc1-c1nc2ccc(F)cc2[nH]1 [MMV023367] | 421 | 1.6 | – | CQ (fast) | – | 491 | 414 |
| CCOc1cc2c(cc1OCC)C(c1cc(Cl)ccc1O)NCC2 (stereo not shown) [MMV000478] | 785 | 0.661 | – | CQ (fast) | – | 1050 | 1450 |
| CN(C)CCCN(C)C(=O)C1Cc2cc(-c3ccccc3)ccc2N1S(=O)(=O)c1ccccc1 (stereo not shown) [MMV028895] | 240 | 2.17 | – | ATQ (slow) | – | 332 | 81 |
| CC(C)c1cccc(C(NC(=O)C2Cc3ccccc3CN2C(=O)c2cccc(N3CCOCC3)c2)C2CCCC2)c1 (stereo not shown) [MMV028038] | 314 | 0.612 | – | ATQ (slow) | – | 432 | 1270 |
| O=C(Nc1ccsc1C(=O)NC1CCCCC1)c1ccc(F)cc1 [MMV665939] | 1140 | 1.4 | – | ATQ (slow) | – | 2180 | 771 |
| CN1CCN(c2ccc(Nc3c4ccccc4nc4ccccc34)cc2)CC1 [MMV006172] | 75 | 0.242 | – | CQ (fast) | – | 139 | 50 |
| CN(C)Cc1ccc(-c2cc3c(-c4ccc(CN(C)C)cc4)ccnc3[nH]2)cc1.O=C(O)C(F)(F)F [MMV022224] | 320 | 0.406 | – | CQ (fast) | – | 346 | 321 |
| c1cncc(-c2cc(N3CCC(CN4CCOCC4)CC3)nc(-c3ccncc3)n2)c1 [MMV668399] | 70 | 0.652 | – | PYR (moderate) | – | 90 | 80 |
| c1cc(-c2cnc3ccc(-c4ccc(N5CCOCC5)cc4)nn23)ccn1 [MMV668311] | 63 | 0.016 | – | CQ (fast) | – | – | 42 |
| O=C(NC(c1ccccc1)c1ccc2cccnc2c1O)c1ccccc1 (stereo not shown) [MMV666080] | 545 | 1.19 | – | – | – | 645 | 779 |
